# Test results: paper PMC6582486, “Stapled EGFR peptide reduces inflammatory breast cancer and inhibits additional HER-driven models of cancer” (Journal of Translational Medicine, 2019)
# Where a SMILES comes first, the peptide text is derived from it. Bridges are numbered along the chain shown (N, C = ends). [ ]: non-standard residue; d: D form. R8 = C=CCCCCCC[C@@](C)(N)C(=O)O; S5 = C=CCCC[C@](C)(N)C(=O)O
# Experiment: Plasma concentration after tail-vein injection (toxicokinetics);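 on SAH-EJ1 concentration in plasma: BQL means below the quantifiable limit of 0.5 µg/mL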
# Format: in vivo, CD-1 mice
# Description: Toxicology was performed by IITRI. The study was conducted in compliance with the US Food and Drug Administration (FDA) good laboratory practice (GLP) Regulations (Code of Federal Regulations Title 21 Part 58) to evaluate the toxicokinetics, local tolerability, immunogenicity, and potential toxicity of SAH5-EJ1 following three times per week intravenous (IV) dosing for 28 days in mice. Male and female CD-1 IGS [Crl:CD1(ICR)] mice (135 per sex) were received from Wilmington, MA-based Charles River Laboratories, Inc.’s Kingston facility (Stone Ridge, NY).
structure (smiles),measurement,setting,value
CC[C@H](C)[C@H](NC(=O)[C@H](Cc1c[nH]cn1)NC(=O)[C@H](CCCNC(=N)N)NC(=O)[C@H](CCCNC(=N)N)NC(=O)[C@H](CCCNC(=N)N)NC(=O)[C@H](CCSC)NC(=O)[C@H](Cc1ccccc1)NC(=O)[C@H](C)NC(=O)[C@H](CCCNC(=N)N)NC(=O)[C@H](C)NC(=O)[C@H](CCC(N)=O)NC(=O)[C@H](CCCNC(=N)N)NC(=O)[C@H](C)NC(=O)[C@H](C)NC(=O)[C@H](C)NC(=O)[C@H](CCCNC(=N)N)NC(=O)[C@H](C)NC(=O)[C@@H](N)Cc1ccc(O)cc1)C(=O)N[C@H](C(=O)N[C@@H](CCCNC(=N)N)C(=O)N[C@@H](CCCCN)C(=O)N[C@@H](CCCNC(=N)N)C(=O)N[C@]1(C)CCCCCCC=CCCC[C@@](C)(C(=O)N[C@@H](CCCNC(=N)N)C(=O)N[C@@H](CCC(=O)O)C(N)=O)NC(=O)[C@H](CCC(N)=O)NC(=O)[C@H](CC(C)C)NC(=O)[C@H](CC(C)C)NC(=O)[C@H](CCCNC(=N)N)NC(=O)[C@H](CCCNC(=N)N)NC(=O)[C@H](CC(C)C)NC1=O)C(C)C [SAH5-EJ1] (H-YARAAARQARAFMRRRHIVRKR[R8]LRRLLQ[S5]RE-NH2; staple 23-30),SAH-EJ1 concentration in plasma,"female, 15 mg/kg IV, day 1, 4 h, mouse 2 of 3",BQL (BQL represents below quantifiable limits (0.5 µg/mL))
same,SAH-EJ1 concentration in plasma,"female, 15 mg/kg IV, day 1, 4 h, mouse 3 of 3",BQL (BQL represents below quantifiable limits (0.5 µg/mL))
same,SAH-EJ1 concentration in plasma,"female, 15 mg/kg IV, day 1, 8 h, mouse 1 of 3",BQL (BQL represents below quantifiable limits (0.5 µg/mL))
same,SAH-EJ1 concentration in plasma,"female, 15 mg/kg IV, day 1, 8 h, mouse 2 of 3",BQL (BQL represents below quantifiable limits (0.5 µg/mL))
same,SAH-EJ1 concentration in plasma,"female, 15 mg/kg IV, day 1, 8 h, mouse 3 of 3",BQL (BQL represents below quantifiable limits (0.5 µg/mL))
same,SAH-EJ1 concentration in plasma,"female, 15 mg/kg IV, day 1, 24 h, mouse 1 of 3",BQL (BQL represents below quantifiable limits (0.5 µg/mL))
same,SAH-EJ1 concentration in plasma,"female, 15 mg/kg IV, day 1, 24 h, mouse 2 of 3",BQL (BQL represents below quantifiable limits (0.5 µg/mL))
same,SAH-EJ1 concentration in plasma,"female, 15 mg/kg IV, day 1, 24 h, mouse 3 of 3",BQL (BQL represents below quantifiable limits (0.5 µg/mL))
same,time by which peptide was not detectable in plasma,"male mice, highest body weight dosage",≤ 4 h
same,SAH-EJ1 concentration in plasma,"male, 5 mg/kg IV, day 1, 1 h, mouse 3 of 3",BQL (BQL represents below quantifiable limits (0.5 µg/mL))
same,SAH-EJ1 concentration in plasma,"male, 5 mg/kg IV, day 1, 2 h, mouse 1 of 3",BQL (BQL represents below quantifiable limits (0.5 µg/mL))
same,SAH-EJ1 concentration in plasma,"male, 5 mg/kg IV, day 1, 2 h, mouse 2 of 3",BQL (BQL represents below quantifiable limits (0.5 µg/mL))
same,SAH-EJ1 concentration in plasma,"male, 5 mg/kg IV, day 1, 2 h, mouse 3 of 3",BQL (BQL represents below quantifiable limits (0.5 µg/mL))
same,SAH-EJ1 concentration in plasma,"male, 5 mg/kg IV, day 1, 4 h, mouse 1 of 3",BQL (BQL represents below quantifiable limits (0.5 µg/mL))
same,SAH-EJ1 concentration in plasma,"male, 5 mg/kg IV, day 1, 4 h, mouse 2 of 3",BQL (BQL represents below quantifiable limits (0.5 µg/mL))
same,SAH-EJ1 concentration in plasma,"male, 5 mg/kg IV, day 1, 4 h, mouse 3 of 3",BQL (BQL represents below quantifiable limits (0.5 µg/mL))
same,SAH-EJ1 concentration in plasma,"male, 5 mg/kg IV, day 1, 8 h, mouse 1 of 3",BQL (BQL represents below quantifiable limits (0.5 µg/mL))
same,SAH-EJ1 concentration in plasma,"male, 5 mg/kg IV, day 1, 8 h, mouse 2 of 3",BQL (BQL represents below quantifiable limits (0.5 µg/mL))
same,SAH-EJ1 concentration in plasma,"male, 5 mg/kg IV, day 1, 8 h, mouse 3 of 3",BQL (BQL represents below quantifiable limits (0.5 µg/mL))
same,SAH-EJ1 concentration in plasma,"male, 5 mg/kg IV, day 1, 24 h, mouse 1 of 3",BQL (BQL represents below quantifiable limits (0.5 µg/mL))
same,SAH-EJ1 concentration in plasma,"male, 5 mg/kg IV, day 1, 24 h, mouse 2 of 3",BQL (BQL represents below quantifiable limits (0.5 µg/mL))
same,SAH-EJ1 concentration in plasma,"male, 5 mg/kg IV, day 1, 24 h, mouse 3 of 3",BQL (BQL represents below quantifiable limits (0.5 µg/mL))
same,SAH-EJ1 concentration in plasma,"male, 10 mg/kg IV, day 1, 2 h, mouse 1 of 3",BQL (BQL represents below quantifiable limits (0.5 µg/mL))
same,SAH-EJ1 concentration in plasma,"male, 10 mg/kg IV, day 1, 2 h, mouse 2 of 3",BQL (BQL represents below quantifiable limits (0.5 µg/mL))
same,SAH-EJ1 concentration in plasma,"male, 10 mg/kg IV, day 1, 2 h, mouse 3 of 3",BQL (BQL represents below quantifiable limits (0.5 µg/mL))
same,SAH-EJ1 concentration in plasma,"male, 10 mg/kg IV, day 1, 4 h, mouse 1 of 3",BQL (BQL represents below quantifiable limits (0.5 µg/mL))
same,SAH-EJ1 concentration in plasma,"male, 10 mg/kg IV, day 1, 4 h, mouse 2 of 3",BQL (BQL represents below quantifiable limits (0.5 µg/mL))
same,SAH-EJ1 concentration in plasma,"male, 10 mg/kg IV, day 1, 4 h, mouse 3 of 3",BQL (BQL represents below quantifiable limits (0.5 µg/mL))
same,SAH-EJ1 concentration in plasma,"male, 10 mg/kg IV, day 1, 8 h, mouse 1 of 3",BQL (BQL represents below quantifiable limits (0.5 µg/mL))
same,SAH-EJ1 concentration in plasma,"male, 10 mg/kg IV, day 1, 8 h, mouse 2 of 3",BQL (BQL represents below quantifiable limits (0.5 µg/mL))
same,SAH-EJ1 concentration in plasma,"male, 10 mg/kg IV, day 1, 8 h, mouse 3 of 3",BQL (BQL represents below quantifiable limits (0.5 µg/mL))
same,SAH-EJ1 concentration in plasma,"male, 10 mg/kg IV, day 1, 24 h, mouse 1 of 3",BQL (BQL represents below quantifiable limits (0.5 µg/mL))
same,SAH-EJ1 concentration in plasma,"male, 10 mg/kg IV, day 1, 24 h, mouse 2 of 3",BQL (BQL represents below quantifiable limits (0.5 µg/mL))
same,SAH-EJ1 concentration in plasma,"male, 10 mg/kg IV, day 1, 24 h, mouse 3 of 3",BQL (BQL represents below quantifiable limits (0.5 µg/mL))
same,SAH-EJ1 concentration in plasma,"male, 15 mg/kg IV, day 1, 1 h, mouse 1 of 3",BQL (BQL represents below quantifiable limits (0.5 µg/mL))
same,SAH-EJ1 concentration in plasma,"male, 15 mg/kg IV, day 1, 2 h, mouse 1 of 3",BQL (BQL represents below quantifiable limits (0.5 µg/mL))
same,SAH-EJ1 concentration in plasma,"male, 15 mg/kg IV, day 1, 2 h, mouse 3 of 3",BQL (BQL represents below quantifiable limits (0.5 µg/mL))
same,SAH-EJ1 concentration in plasma,"male, 15 mg/kg IV, day 1, 4 h, mouse 1 of 3",BQL (BQL represents below quantifiable limits (0.5 µg/mL))
same,SAH-EJ1 concentration in plasma,"male, 15 mg/kg IV, day 1, 4 h, mouse 2 of 3",BQL (BQL represents below quantifiable limits (0.5 µg/mL))
same,SAH-EJ1 concentration in plasma,"male, 15 mg/kg IV, day 1, 4 h, mouse 3 of 3",BQL (BQL represents below quantifiable limits (0.5 µg/mL))
same,SAH-EJ1 concentration in plasma,"male, 15 mg/kg IV, day 1, 8 h, mouse 1 of 3",BQL (BQL represents below quantifiable limits (0.5 µg/mL))
same,SAH-EJ1 concentration in plasma,"male, 15 mg/kg IV, day 1, 8 h, mouse 2 of 3",BQL (BQL represents below quantifiable limits (0.5 µg/mL))
same,SAH-EJ1 concentration in plasma,"male, 15 mg/kg IV, day 1, 8 h, mouse 3 of 3",BQL (BQL represents below quantifiable limits (0.5 µg/mL))
same,SAH-EJ1 concentration in plasma,"male, 15 mg/kg IV, day 1, 24 h, mouse 1 of 3",BQL (BQL represents below quantifiable limits (0.5 µg/mL))
same,SAH-EJ1 concentration in plasma,"male, 15 mg/kg IV, day 1, 24 h, mouse 2 of 3",BQL (BQL represents below quantifiable limits (0.5 µg/mL))
same,SAH-EJ1 concentration in plasma,"male, 15 mg/kg IV, day 1, 24 h, mouse 3 of 3",BQL (BQL represents below quantifiable limits (0.5 µg/mL))
